Measured values published in ChEMBL document CHEMBL3414527, “Engineering potent and selective analogues of GpTx-1, a tarantula venom peptide antagonist of the Na(V)1.7 sodium channel” (J Med Chem, 2015).
pIC50: −log10 of the molar value. Bridge positions count the residues as written; N and C are the ends. Peptide text beside a SMILES is read from it.

Legend:
[1] = biological target: Sodium channel protein type 9 subunit alpha (Homo sapiens, UniProt Q15858); assay: Inhibition of human NaV1.7 at -140 mV holding potential by whole-cell patch clamp assay
Sodium channel protein type 9 subunit alpha, sequence (Q15858 whole entry): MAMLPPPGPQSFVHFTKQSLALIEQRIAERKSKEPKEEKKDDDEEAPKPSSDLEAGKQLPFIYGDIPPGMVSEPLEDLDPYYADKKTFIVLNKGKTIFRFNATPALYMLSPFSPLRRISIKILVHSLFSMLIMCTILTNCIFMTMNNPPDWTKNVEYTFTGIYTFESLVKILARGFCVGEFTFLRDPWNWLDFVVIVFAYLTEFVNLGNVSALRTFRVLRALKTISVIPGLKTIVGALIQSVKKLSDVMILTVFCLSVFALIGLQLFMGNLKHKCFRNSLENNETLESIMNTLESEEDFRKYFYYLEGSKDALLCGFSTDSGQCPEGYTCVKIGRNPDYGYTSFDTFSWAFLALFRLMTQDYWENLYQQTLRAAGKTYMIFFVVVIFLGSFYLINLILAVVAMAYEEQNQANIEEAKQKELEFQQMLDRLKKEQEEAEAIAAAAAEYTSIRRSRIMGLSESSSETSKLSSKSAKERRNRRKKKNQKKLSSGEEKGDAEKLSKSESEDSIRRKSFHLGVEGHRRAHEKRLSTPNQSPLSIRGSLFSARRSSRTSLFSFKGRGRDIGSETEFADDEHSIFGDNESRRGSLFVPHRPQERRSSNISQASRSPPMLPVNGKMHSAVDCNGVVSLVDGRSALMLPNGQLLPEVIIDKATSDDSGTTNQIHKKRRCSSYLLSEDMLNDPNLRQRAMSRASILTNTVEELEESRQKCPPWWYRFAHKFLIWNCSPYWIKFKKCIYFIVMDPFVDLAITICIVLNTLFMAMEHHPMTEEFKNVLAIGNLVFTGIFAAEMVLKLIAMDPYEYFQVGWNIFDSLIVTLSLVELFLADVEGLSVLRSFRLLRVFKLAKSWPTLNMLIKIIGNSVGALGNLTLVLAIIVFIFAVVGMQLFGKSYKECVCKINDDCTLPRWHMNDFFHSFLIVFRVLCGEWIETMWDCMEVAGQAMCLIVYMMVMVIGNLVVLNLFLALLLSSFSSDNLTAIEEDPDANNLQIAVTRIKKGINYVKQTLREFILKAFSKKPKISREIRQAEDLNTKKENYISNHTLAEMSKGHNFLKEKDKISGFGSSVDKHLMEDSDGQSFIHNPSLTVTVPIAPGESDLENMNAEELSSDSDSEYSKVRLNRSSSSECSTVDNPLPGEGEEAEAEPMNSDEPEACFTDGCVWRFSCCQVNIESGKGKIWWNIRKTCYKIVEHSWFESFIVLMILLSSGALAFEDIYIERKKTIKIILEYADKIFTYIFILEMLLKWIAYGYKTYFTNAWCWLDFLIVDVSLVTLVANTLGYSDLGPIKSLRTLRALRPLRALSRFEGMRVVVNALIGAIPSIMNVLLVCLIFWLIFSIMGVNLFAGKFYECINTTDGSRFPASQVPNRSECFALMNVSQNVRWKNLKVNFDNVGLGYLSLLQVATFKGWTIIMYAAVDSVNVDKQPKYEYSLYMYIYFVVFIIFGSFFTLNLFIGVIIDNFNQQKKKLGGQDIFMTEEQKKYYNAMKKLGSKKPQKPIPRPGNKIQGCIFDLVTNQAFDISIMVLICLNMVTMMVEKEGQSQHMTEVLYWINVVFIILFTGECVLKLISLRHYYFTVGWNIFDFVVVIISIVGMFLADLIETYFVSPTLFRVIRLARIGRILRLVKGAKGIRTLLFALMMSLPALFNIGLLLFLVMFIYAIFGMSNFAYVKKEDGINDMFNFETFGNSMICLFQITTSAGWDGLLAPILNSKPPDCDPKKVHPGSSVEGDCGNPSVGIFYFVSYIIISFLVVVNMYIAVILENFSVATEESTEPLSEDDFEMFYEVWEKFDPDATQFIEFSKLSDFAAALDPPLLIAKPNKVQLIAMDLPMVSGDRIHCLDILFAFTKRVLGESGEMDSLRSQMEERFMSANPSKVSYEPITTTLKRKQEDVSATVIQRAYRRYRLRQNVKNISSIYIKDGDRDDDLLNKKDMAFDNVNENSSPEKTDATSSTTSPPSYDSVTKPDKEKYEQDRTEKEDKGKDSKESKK

[2] = biological target: Sodium channel protein type 5 subunit alpha (Homo sapiens, UniProt Q14524); assay: Inhibition of human NaV1.5 at -140 mV holding potential by whole-cell patch clamp assay
Sodium channel protein type 5 subunit alpha, sequence (Q14524 whole entry): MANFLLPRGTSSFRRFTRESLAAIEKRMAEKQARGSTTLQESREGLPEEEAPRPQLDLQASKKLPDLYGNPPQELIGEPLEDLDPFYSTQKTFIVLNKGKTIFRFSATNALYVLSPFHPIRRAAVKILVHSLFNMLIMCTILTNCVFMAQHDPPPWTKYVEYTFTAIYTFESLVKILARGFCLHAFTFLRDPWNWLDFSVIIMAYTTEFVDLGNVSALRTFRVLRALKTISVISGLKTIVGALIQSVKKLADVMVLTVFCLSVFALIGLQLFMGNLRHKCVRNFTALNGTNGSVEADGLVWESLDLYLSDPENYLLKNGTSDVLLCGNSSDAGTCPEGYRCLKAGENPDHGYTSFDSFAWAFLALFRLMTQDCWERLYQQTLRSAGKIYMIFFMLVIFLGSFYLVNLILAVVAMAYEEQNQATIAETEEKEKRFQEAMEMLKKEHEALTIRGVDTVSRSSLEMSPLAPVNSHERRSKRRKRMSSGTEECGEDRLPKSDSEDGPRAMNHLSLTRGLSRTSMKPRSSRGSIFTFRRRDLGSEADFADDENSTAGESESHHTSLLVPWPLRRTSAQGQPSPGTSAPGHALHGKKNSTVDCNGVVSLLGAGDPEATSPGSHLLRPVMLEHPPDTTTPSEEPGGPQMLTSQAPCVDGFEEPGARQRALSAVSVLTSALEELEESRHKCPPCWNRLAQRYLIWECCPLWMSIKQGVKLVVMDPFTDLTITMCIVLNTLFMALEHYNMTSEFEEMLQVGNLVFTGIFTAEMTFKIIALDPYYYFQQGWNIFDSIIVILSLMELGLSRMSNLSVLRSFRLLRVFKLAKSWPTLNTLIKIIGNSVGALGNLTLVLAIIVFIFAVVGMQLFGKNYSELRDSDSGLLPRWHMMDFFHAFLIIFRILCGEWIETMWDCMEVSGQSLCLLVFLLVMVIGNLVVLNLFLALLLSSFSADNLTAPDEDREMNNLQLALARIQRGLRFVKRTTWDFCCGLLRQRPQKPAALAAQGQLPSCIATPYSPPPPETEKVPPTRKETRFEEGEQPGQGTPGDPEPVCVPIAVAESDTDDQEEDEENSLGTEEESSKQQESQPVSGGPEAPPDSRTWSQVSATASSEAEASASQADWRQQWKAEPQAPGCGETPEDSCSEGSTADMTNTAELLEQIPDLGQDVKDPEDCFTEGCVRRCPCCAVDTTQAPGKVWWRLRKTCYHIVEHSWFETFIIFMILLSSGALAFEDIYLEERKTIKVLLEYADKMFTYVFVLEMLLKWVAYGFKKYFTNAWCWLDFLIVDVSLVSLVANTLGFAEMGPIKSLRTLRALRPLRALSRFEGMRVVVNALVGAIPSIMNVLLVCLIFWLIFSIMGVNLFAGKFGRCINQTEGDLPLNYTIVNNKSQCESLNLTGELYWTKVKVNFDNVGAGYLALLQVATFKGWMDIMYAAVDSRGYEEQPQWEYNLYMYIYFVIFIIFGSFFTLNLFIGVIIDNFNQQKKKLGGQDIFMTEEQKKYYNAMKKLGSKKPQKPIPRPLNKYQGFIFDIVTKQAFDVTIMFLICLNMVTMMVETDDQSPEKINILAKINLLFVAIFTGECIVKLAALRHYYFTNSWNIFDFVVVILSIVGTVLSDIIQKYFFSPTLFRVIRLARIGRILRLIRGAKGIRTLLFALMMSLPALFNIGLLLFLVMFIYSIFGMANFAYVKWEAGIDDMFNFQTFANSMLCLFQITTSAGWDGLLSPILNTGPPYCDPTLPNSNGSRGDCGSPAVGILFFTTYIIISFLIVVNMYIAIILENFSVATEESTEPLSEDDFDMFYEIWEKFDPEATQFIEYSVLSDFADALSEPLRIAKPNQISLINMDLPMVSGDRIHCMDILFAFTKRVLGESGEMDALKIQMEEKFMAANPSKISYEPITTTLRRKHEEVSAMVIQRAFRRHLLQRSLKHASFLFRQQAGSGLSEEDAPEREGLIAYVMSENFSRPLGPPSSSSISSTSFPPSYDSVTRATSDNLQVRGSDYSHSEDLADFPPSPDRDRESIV

SMILES	pIC50 [1]	pIC50 [2]
CC[C@H](C)[C@@H]1NC(=O)[C@@H]2CSSC[C@@H]3NC(=O)[C@H](C(C)C)NC(=O)[C@H](C)NC(=O)[C@H](CC(N)=O)NC(=O)[C@@H]4CCCN4C(=O)[C@H](CCCNC(=N)N)NC(=O)[C@H](CSSC[C@H](NC(=O)[C@@H](N)CC(=O)O)C(=O)N[C@@H](CC(C)C)C(=O)NCC(=O)N[C@@H](Cc4ccccc4)C(=O)N[C@@H](CCSC)C(=O)N[C@@H](CCCNC(=N)N)C(=O)N[C@@H](CCCCN)C(=O)N2)NC(=O)[C@H](CSSC[C@@H](C(=O)N[C@@H](CCCCN)C(=O)N[C@@H](Cc2ccc(O)cc2)C(=O)N[C@H](C(=O)N[C@@H](Cc2ccccc2)C(N)=O)C(C)C)NC(=O)[C@H](Cc2c[nH]c4ccccc24)NC(=O)[C@H](CCCCN)NC(=O)[C@H](Cc2cnc[nH]2)NC(=O)[C@H]([C@@H](C)O)NC(=O)[C@H](CCCNC(=N)N)NC(=O)[C@H](CO)NC3=O)NC(=O)[C@H](CCCCN)NC(=O)[C@H](CC(=O)O)NC(=O)[C@H](CC(N)=O)NC(=O)[C@H](CC(=O)O)NC(=O)[C@@H]2CCCN2C1=O (H-DCLGFMRKCIPDNDKCCRPNAVCSRTHKWCKYVF-NH2; disulfide 2-17, 9-23, 16-30)	6.72	< 4.70
CC[C@H](C)[C@@H]1NC(=O)[C@@H]2CSSC[C@@H]3NC(=O)[C@H](C(C)C)NC(=O)[C@H](CC(C)C)NC(=O)[C@H](CC(N)=O)NC(=O)[C@@H]4CCCN4C(=O)[C@H](CCCNC(=N)N)NC(=O)[C@H](CSSC[C@H](NC(=O)[C@@H](N)CC(=O)O)C(=O)N[C@@H](CC(C)C)C(=O)NCC(=O)N[C@@H](Cc4ccccc4)C(=O)N[C@@H](Cc4ccc(O)cc4)C(=O)N[C@@H](CCCNC(=N)N)C(=O)N[C@@H](CCCCN)C(=O)N2)NC(=O)[C@H](CSSC[C@@H](C(=O)N[C@@H](CCCCN)C(=O)N[C@@H](Cc2ccc(O)cc2)C(=O)N[C@H](C(=O)N[C@@H](Cc2ccccc2)C(N)=O)C(C)C)NC(=O)[C@H](Cc2c[nH]c4ccccc24)NC(=O)[C@H](CCCCN)NC(=O)[C@H](Cc2cnc[nH]2)NC(=O)[C@H]([C@@H](C)O)NC(=O)[C@H](CCCNC(=N)N)NC(=O)[C@H](CO)NC3=O)NC(=O)[C@H](CCCCN)NC(=O)[C@H](CC(=O)O)NC(=O)[C@H](CC(N)=O)NC(=O)[C@H](CC(=O)O)NC(=O)[C@@H]2CCCN2C1=O (H-DCLGFYRKCIPDNDKCCRPNLVCSRTHKWCKYVF-NH2; disulfide 2-17, 9-23, 16-30)	7.20	< 5.00
CC[C@H](C)[C@@H]1NC(=O)[C@@H]2CSSC[C@@H]3NC(=O)[C@H](C(C)C)NC(=O)[C@H](CC(C)C)NC(=O)[C@H](CC(N)=O)NC(=O)[C@@H]4CCCN4C(=O)[C@H](CCCNC(=N)N)NC(=O)[C@H](CSSC[C@H](NC(=O)[C@@H](N)CC(=O)O)C(=O)N[C@@H](CC(C)C)C(=O)NCC(=O)N[C@@H](Cc4ccc(I)cc4)C(=O)N[C@@H](CCSC)C(=O)N[C@@H](CCCNC(=N)N)C(=O)N[C@@H](CCCCN)C(=O)N2)NC(=O)[C@H](CSSC[C@@H](C(=O)N[C@@H](CCCCN)C(=O)N[C@@H](Cc2ccc(O)cc2)C(=O)N[C@H](C(=O)N[C@@H](Cc2ccccc2)C(N)=O)C(C)C)NC(=O)[C@H](Cc2c[nH]c4ccccc24)NC(=O)[C@H](CCCCN)NC(=O)[C@H](Cc2cnc[nH]2)NC(=O)[C@H]([C@@H](C)O)NC(=O)[C@H](CCCNC(=N)N)NC(=O)[C@H](CO)NC3=O)NC(=O)[C@H](CCCCN)NC(=O)[C@H](CC(=O)O)NC(=O)[C@H](CC(N)=O)NC(=O)[C@H](CC(=O)O)NC(=O)[C@@H]2CCCN2C1=O	6.63	< 5.00
CC[C@H](C)[C@@H]1NC(=O)[C@@H]2CSSC[C@@H]3NC(=O)[C@H](C(C)C)NC(=O)[C@H](CC(C)C)NC(=O)[C@H](CC(N)=O)NC(=O)[C@@H]4CCCN4C(=O)[C@H](CCCNC(=N)N)NC(=O)[C@H](CSSC[C@H](NC(=O)[C@@H](N)CC(=O)O)C(=O)N[C@@H](CC(C)C)C(=O)NCC(=O)N[C@@H](Cc4ccccc4)C(=O)N[C@@H](CCSC)C(=O)N[C@@H](CCCNC(=N)N)C(=O)N[C@@H](CCCCN)C(=O)N2)NC(=O)[C@H](CSSC[C@@H](C(=O)N[C@@H](CCCCN)C(=O)N[C@@H](Cc2ccc(O)cc2)C(=O)N[C@H](C(=O)N[C@@H](Cc2ccccc2)C(N)=O)C(C)C)NC(=O)[C@H](Cc2c[nH]c4ccccc24)NC(=O)[C@H](CCCCN)NC(=O)[C@H](Cc2cnc[nH]2)NC(=O)[C@H](C)NC(=O)[C@H](CCCNC(=N)N)NC(=O)[C@H](CO)NC3=O)NC(=O)[C@H](CCCCN)NC(=O)[C@H](CC(=O)O)NC(=O)[C@H](CC(N)=O)NC(=O)[C@H](CC(=O)O)NC(=O)[C@@H]2CCCN2C1=O (H-DCLGFMRKCIPDNDKCCRPNLVCSRAHKWCKYVF-NH2; disulfide 2-17, 9-23, 16-30)	6.59	< 5.30
CC[C@H](C)[C@@H]1NC(=O)[C@@H]2CSSC[C@@H]3NC(=O)[C@H](C(C)C)NC(=O)[C@H](CC(C)C)NC(=O)[C@H](CC(N)=O)NC(=O)[C@@H]4CCCN4C(=O)[C@H](CCCNC(=N)N)NC(=O)[C@H](CSSC[C@H](NC(=O)[C@@H](N)CC(=O)O)C(=O)N[C@@H](CC(C)C)C(=O)NCC(=O)N[C@@H](Cc4ccccc4)C(=O)N[C@@H](Cc4c[nH]c5ccccc45)C(=O)N[C@@H](CCCNC(=N)N)C(=O)N[C@@H](CCCCN)C(=O)N2)NC(=O)[C@H](CSSC[C@@H](C(=O)N[C@@H](CCCCN)C(=O)N[C@@H](Cc2ccc(O)cc2)C(=O)N[C@H](C(=O)N[C@@H](Cc2ccccc2)C(N)=O)C(C)C)NC(=O)[C@H](Cc2c[nH]c4ccccc24)NC(=O)[C@H](CCCCN)NC(=O)[C@H](Cc2cnc[nH]2)NC(=O)[C@H]([C@@H](C)O)NC(=O)[C@H](CCCNC(=N)N)NC(=O)[C@H](CO)NC3=O)NC(=O)[C@H](CCCCN)NC(=O)[C@H](CC(=O)O)NC(=O)[C@H](CC(N)=O)NC(=O)[C@H](CC(=O)O)NC(=O)[C@@H]2CCCN2C1=O (H-DCLGFWRKCIPDNDKCCRPNLVCSRTHKWCKYVF-NH2; disulfide 2-17, 9-23, 16-30)	7.64	5.47
CC[C@H](C)[C@@H]1NC(=O)CNC(=O)[C@H](CC(C)C)NC(=O)[C@@H](NC(=O)[C@@H](N)CC(=O)O)CSSC[C@@H]2NC(=O)[C@@H]3CSSC[C@@H](C(=O)N[C@@H](CCCCN)C(=O)N[C@@H](Cc4ccc(O)cc4)C(=O)N[C@H](C(=O)N[C@@H](Cc4ccccc4)C(N)=O)C(C)C)NC(=O)[C@H](Cc4c[nH]c5ccccc45)NC(=O)[C@H](CCCCN)NC(=O)[C@H](Cc4cnc[nH]4)NC(=O)[C@H]([C@@H](C)O)NC(=O)[C@H](CCCNC(=N)N)NC(=O)[C@H](CO)NC(=O)[C@H](CSSC[C@H](NC(=O)[C@H](CCCCN)NC(=O)[C@H](CCCNC(=N)N)NC(=O)[C@H](CCSC)NC1=O)C(=O)N[C@@H]([C@@H](C)CC)C(=O)N1CCC[C@H]1C(=O)N[C@@H](CC(=O)O)C(=O)N[C@@H](CC(N)=O)C(=O)N[C@@H](CC(=O)O)C(=O)N[C@@H](CCCCN)C(=O)N3)NC(=O)[C@H](C(C)C)NC(=O)[C@H](CC(C)C)NC(=O)[C@H](CC(N)=O)NC(=O)[C@@H]1CCCN1C(=O)[C@H](CCCNC(=N)N)NC2=O (H-DCLGIMRKCIPDNDKCCRPNLVCSRTHKWCKYVF-NH2; disulfide 2-17, 9-23, 16-30)	8.05	< 5.00
CC[C@H](C)[C@@H]1NC(=O)[C@@H]2CSSC[C@@H]3NC(=O)[C@H](C(C)C)NC(=O)[C@H](CC(C)C)NC(=O)[C@H](CC(N)=O)NC(=O)[C@@H]4CCCN4C(=O)[C@H](CCCNC(=N)N)NC(=O)[C@H](CSSC[C@H](NC(=O)[C@@H](N)CC(=O)O)C(=O)N[C@@H](CC(C)C)C(=O)NCC(=O)N[C@@H](Cc4ccccc4)C(=O)N[C@@H](CCSC)C(=O)N[C@@H](CCCNC(=N)N)C(=O)N[C@@H](CCCCN)C(=O)N2)NC(=O)[C@H](CSSC[C@@H](C(=O)N[C@@H](CCCCN)C(=O)N[C@@H](Cc2ccc(O)cc2)C(=O)N[C@H](C(=O)N[C@@H](Cc2ccccc2)C(N)=O)C(C)C)NC(=O)[C@H](C)NC(=O)[C@H](CCCCN)NC(=O)[C@H](Cc2cnc[nH]2)NC(=O)[C@H]([C@@H](C)O)NC(=O)[C@H](CCCNC(=N)N)NC(=O)[C@H](CO)NC3=O)NC(=O)[C@H](CCCCN)NC(=O)[C@H](CC(=O)O)NC(=O)[C@H](CC(N)=O)NC(=O)[C@H](CC(=O)O)NC(=O)[C@@H]2CCCN2C1=O (H-DCLGFMRKCIPDNDKCCRPNLVCSRTHKACKYVF-NH2; disulfide 2-17, 9-23, 16-30)	< 5.30	< 5.30
CC[C@H](C)[C@@H]1NC(=O)[C@@H]2CSSC[C@@H]3NC(=O)[C@H](C(C)C)NC(=O)[C@H](CC(C)C)NC(=O)[C@H](CC(N)=O)NC(=O)[C@H](C)NC(=O)[C@H](CCCNC(=N)N)NC(=O)[C@H](CSSC[C@H](NC(=O)[C@@H](N)CC(=O)O)C(=O)N[C@@H](CC(C)C)C(=O)NCC(=O)N[C@@H](Cc4ccccc4)C(=O)N[C@@H](CCSC)C(=O)N[C@@H](CCCNC(=N)N)C(=O)N[C@@H](CCCCN)C(=O)N2)NC(=O)[C@H](CSSC[C@@H](C(=O)N[C@@H](CCCCN)C(=O)N[C@@H](Cc2ccc(O)cc2)C(=O)N[C@H](C(=O)N[C@@H](Cc2ccccc2)C(N)=O)C(C)C)NC(=O)[C@H](Cc2c[nH]c4ccccc24)NC(=O)[C@H](CCCCN)NC(=O)[C@H](Cc2cnc[nH]2)NC(=O)[C@H]([C@@H](C)O)NC(=O)[C@H](CCCNC(=N)N)NC(=O)[C@H](CO)NC3=O)NC(=O)[C@H](CCCCN)NC(=O)[C@H](CC(=O)O)NC(=O)[C@H](CC(N)=O)NC(=O)[C@H](CC(=O)O)NC(=O)[C@@H]2CCCN2C1=O (H-DCLGFMRKCIPDNDKCCRANLVCSRTHKWCKYVF-NH2; disulfide 2-17, 9-23, 16-30)	7.05	< 4.70
